Test results published in ChEMBL document CHEMBL1149968, “Synthesis and in vitro cytotoxicity of cis-dichloro[(2S,3R,4S)-2-aminomethyl-3,4-(O-isopropylidene)dihydroxy- or -3,4-dihydroxypyrrolidine]platinum(II)” (Bioorg Med Chem Lett, 1996).

Tests used:
[1] = Relative resistance calculated as the ratio of IC50 of resistant sublime to that of IC50 of parent cell line.; format: functional
A549 = experiment: In vitro cytotoxicity against lung cancer A 549 cell lines; format: functional, cell-based, Homo sapiens
XF498 = experiment: In vitro cytotoxicity against CNS cancer XF 498 cell lines; format: functional, cell-based, Homo sapiens
L1210 [2] = experiment: In vitro cytotoxicity against Cisplatin sensitive L1210/parent leukemia cell lines.; format: functional, cell-based, Mus musculus
L1210 [3] = experiment: In vitro cytotoxicity against Cisplatin resistant L1210/CPR leukemia cell lines.; format: functional, cell-based, Mus musculus
SK-OV-3 = experiment: In vitro cytotoxicity against ovarian cancer SK-OV-3 cell lines; format: functional, cell-based, Homo sapiens

For CARBOPLATIN [listing 1 of 2 here], which Relative resistance [1] is on record?
Its Relative resistance is 22.7.

For CISPLATIN [listing 1 of 2 here], which Relative resistance [1] is on record?
Its Relative resistance is 34.

For “cis-Dichloro[(2S,3R,4S)-2-aminomethyl-3,4-(O-isopropylidene)dihydrxypyrrolidine]platinum (II) [listing 1 of 2 here]”, which Relative resistance [1] is on record?
Its Relative resistance is 5.3.

With “cis-Dichloro[(2S,3R,4S)-2-aminomethyl-3,4-(O-isopropylidene)dihydrxypyrrolidine]platinum (II) [listing 2 of 2 here]” as the substance, how does the IC50 (A549) read?
Its IC50 is 10.9 µM.

What about the IC50 (XF498) of the same substance?
Its IC50 is 6.2 µM.

What about the IC50 (L1210 [2]) of the same substance?
The IC50 was 300 nM.

What about the IC50 (L1210 [3]) of the same substance?
Its IC50 is 1.6 µM.

And the IC50 (SK-OV-3)?
The IC50 was 7.8 µM.

Which results are given for “cis-Dichloro[(2S,3R,4S)-2-aminomethyl-3,4-dihydroxypyrrolidine]platinum (II) [listing 1 of 2 here]”?
IC50 (A549): 32.5 µM; IC50 (XF498): 14.8 µM; IC50 (L1210 [2]): 1400 nM; IC50 (L1210 [3]): 10.9 µM; IC50 (SK-OV-3): 15.4 µM

With CISPLATIN [listing 2 of 2 here] as the substance, how does the IC50 (A549) read?
Its IC50 is 3.2 µM.

What about the IC50 (XF498) of the same substance?
Its IC50 is 2.9 µM.

What about the IC50 (L1210 [3]) of the same substance?
The IC50 was 3.4 µM.

For CARBOPLATIN [listing 2 of 2 here], which IC50 (A549) is on record?
Its IC50 is 37.7 µM.

What about the IC50 (XF498) of the same substance?
The IC50 was 13.6 µM.

What about the IC50 (L1210 [2]) of the same substance?
Its IC50 is 2000 nM.

What about the IC50 (L1210 [3]) of the same substance?
Its IC50 is 45.3 µM.

What about the IC50 (SK-OV-3) of the same substance?
Its IC50 is 13.9 µM.

Which Relative resistance [1] does the source give for “cis-Dichloro[(2S,3R,4S)-2-aminomethyl-3,4-dihydroxypyrrolidine]platinum (II) [listing 2 of 2 here]” here?
The Relative resistance was 7.8.
